Assay results as given in patent US20180265515A1 (Genentech, Inc., priority 2015, published 2018).

Legend:
[1] = target: T1, isolated recombinant JAK1 kinase domain (Homo sapiens, UniProt P23458); experiment: JAK1 enzyme assay (Caliper LabChip, Ki); assay type: biochemical; conditions: recombinant JAK1 kinase domain, 25 μM ATP
T1 construct: The activity of the isolated recombinant JAK1 and JAK2 kinase domain was measured
Protocol: (§1) JAK Enzyme Assays were Carried Out as Follows:
(§2) The activity of the isolated recombinant JAK1 and JAK2 kinase domain was measured by monitoring phosphorylation of a peptide derived from JAK3 (Val-Ala-Leu-Val-Asp-Gly-Tyr-Phe-Arg-Leu-Thr-Thr, fluorescently labeled on the N-terminus with 5-carboxyfluorescein) using the Caliper LabChip® technology (Caliper Life Sciences, Hopkinton, Mass.). […] Reactions were incubated at 22° C. in 384-well polypropylene microtiter plates for 30 minutes and then stopped by addition of 25 μL of an EDTA containing solution (100 mM HEPES buffer (pH 7.2), 0.015% Brij-35, 150 mM EDTA), resulting in a final EDTA concentration of 50 mM. After termination of the kinase reaction, the proportion of phosphorylated product was determined as a fraction of total peptide substrate using the Caliper LabChip® 3000 according to the manufacturer's specifications. Ki values were then determined using the Morrison tight binding model (Morrison, J. F., Biochim. Biophys. Acta. 185:269-296 (1969); William, J. W. and Morrison, J. F., Meth. Enzymol., 63:437-467 (1979)) modified for ATP-competitive inhibition [Ki=Ki,app/(1+[ATP]/Km,app)].

[2] = target: T2, isolated recombinant JAK2 kinase domain (Homo sapiens, UniProt O60674); experiment: JAK2 enzyme assay (Caliper LabChip, Ki); assay type: biochemical; conditions: 25 μM ATP
T2 construct: The activity of the isolated recombinant JAK1 and JAK2 kinase domain was measured
Protocol: as §1, §2

[3] = system: JAK1-dependent STAT6 phosphorylation downstream of IL-13 stimulation in BEAS-2B human bronchial epithelial cells; experiment: JAK1 pathway assay in BEAS-2B cells (IL-13 stimulated STAT6 phosphorylation, MSD); assay type: cell-based; conditions: read-out: P-STAT6 BEAS2B + IL13 IC50
Protocol: JAK1 Pathway Assay in Cell Lines was Carried Out as Follows:
Inhibitor potency (EC50) was determined in cell-based assays designed to measure JAK1 dependent STAT phosphorylation. As noted above, inhibition of IL-4, IL-13, and IL-9 signaling by blocking the Jak/Stat signaling pathway can alleviate asthmatic symptoms in pre-clinical lung inflammation models (Mathew et al., 2001, J Exp Med 193(9): 1087-1096; Kudlacz et. al., 2008, Eur J. Pharmacol 582(1-3): 154-161).
In one assay approach, TF-1 human erythroleukemia cells obtained from the American Type Culture Collection (ATCC; Manassas, Va.) were used to measure JAK1-dependent STAT6 phosphorylation downstream of IL-13 stimulation. Prior to use in the assays, TF-1 cells were starved of GM-CSF overnight in OptiMEM medium (Life Technologies, Grand Island, N.Y.) supplemented with 0.5% charcoal/dextran stripped fetal bovine serum (FBS), 0.1 mM non-essential amino acids (NEAA), and 1 mM sodium pyruvate. The assays were run in 384-well plates in serum-free OptiMEM medium using 300,000 cells per well. In a second assay approach, BEAS-2B human bronchial epithelial cells obtained from ATCC were plated at 100,000 cells per well of a 96-well plate one day prior to the experiment. The BEAS-2B assay was run in complete growth medium (bronchial epithelial basal medium plus bulletkit; Lonza; Basel, Switzerland).
Test compounds were serially diluted 1:2 in DMSO and then diluted 1:50 in medium just before use. Diluted compounds were added to the cells, for a final DMSO concentration of 0.2%, and incubated for 30 min (for the TF-1 assay) or 1 hr (for the BEAS-2B assay) at 37° C. Then, cells were stimulated with human recombinant cytokine at their respective EC90 concentrations, as previously determined for each individual lot. Cells were stimulated with IL-13 (R&D Systems, Minneapolis, Minn.) for 15 min at 37° C. The TF-1 cell reactions were stopped by the direct addition of 10× lysis buffer (Cell Signaling Technologies, Danvers, Mass.), whereas the BEAS-2B cell incubations were halted by the removal of medium and addition of 1× lysis buffer. The resultant samples were frozen in the plates at −80° C. Compound mediated inhibition of STAT6 phosphorylation was measured in the cell lysates using MesoScale Discovery (MSD) technology (Gaithersburg, Md.). EC50 values were determined as the concentration of compound required for 50% inhibition of STAT phosphorylation relative to that measured for the DMSO control.

T2 sequence (O60674 849-1124 limits assumed): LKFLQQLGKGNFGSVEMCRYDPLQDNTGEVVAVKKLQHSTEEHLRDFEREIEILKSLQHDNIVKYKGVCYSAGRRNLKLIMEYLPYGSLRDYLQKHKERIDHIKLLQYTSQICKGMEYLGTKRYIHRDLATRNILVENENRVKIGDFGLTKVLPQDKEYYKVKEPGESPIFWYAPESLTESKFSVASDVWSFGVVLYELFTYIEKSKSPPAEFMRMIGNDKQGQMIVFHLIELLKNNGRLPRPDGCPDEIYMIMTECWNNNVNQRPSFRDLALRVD
T1 sequence (P23458 875-1153 limits assumed): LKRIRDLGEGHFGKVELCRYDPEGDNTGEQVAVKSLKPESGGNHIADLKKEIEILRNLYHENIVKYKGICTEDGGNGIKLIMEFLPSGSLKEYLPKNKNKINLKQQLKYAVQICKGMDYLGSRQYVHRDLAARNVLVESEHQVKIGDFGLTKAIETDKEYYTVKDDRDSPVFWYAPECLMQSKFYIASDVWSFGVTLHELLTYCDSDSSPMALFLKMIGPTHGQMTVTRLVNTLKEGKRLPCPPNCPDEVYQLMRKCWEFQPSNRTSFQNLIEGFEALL

Ki [1] [nM]	Ki [2] [nM]	Compound	IC50 [3] [nM]
0.22	0.17	CC(C)Sc1ccc(OC(F)F)c(-c2nn(CC(=O)N3CCC(N4CC[S+]([O-])CC4)CC3)cc2NC(=O)c2cnn3cccnc23)c1 [Example 138, N-[3-[2-(difluoromethoxy)-5-isopropylsulfanyl-phenyl]-1-[2-oxo-2-[4-(1-oxo-1,4-thiazinan-4-yl)-1-piperidyl]ethyl]pyrazol-4-yl]pyrazolo[1,5-a]pyrimidine-3-carboxamide]	250
0.41	0.91	CC(C)Sc1ccc(OC(F)F)c(-c2nn(CC(=O)N3CCC(N4CCOC[C@H]4CO)CC3)cc2NC(=O)c2cnn3cccnc23)c1 [Example 153]	110
0.36	0.57	CCSc1ccc(OC(F)F)c(-c2nn(CC(=O)N3CCC(N4CCOCC4)CC3)cc2NC(=O)c2cnn3cccnc23)c1 [Example 193]	17
0.46	0.63	CSc1ccc(OC(F)F)c(-c2nn(CC(=O)N3CCC(CN4CCN(CC(=O)N(C)C)C[C@@H]4C)CC3)cc2NC(=O)c2cnn3cccnc23)c1 [Example 94, N-[3-[2-(difluoromethoxy)-5-methylsulfanyl-phenyl]-1-[2-[4-[[(2S)-4-[2-(dimethylamino)-2-oxo-ethyl]-2-methyl-piperazin-1-yl]methyl]-1-piperidyl]-2-oxo-ethyl]pyrazol-4-yl]pyrazolo[1,5-a]pyrimidine-3-carboxamide]	62
0.3	0.2	CSc1ccc(OC(F)F)c(-c2nn(Cc3cn(C4CCN(C5CCOC5)CC4)nn3)cc2NC(=O)c2cnn3cccnc23)c1 (stereo not drawn) [Example 96, N-[3-[2-(difluoromethoxy)-5-methylsulfanyl-phenyl]-1-[[1-(1-tetrahydrofuran-3-yl-4-piperidyl)triazol-4-yl]methyl]pyrazol-4-yl]pyrazolo[1,5-a]pyrimidine-3-carboxamide]	14
0.54	2.3	CC(C)Sc1ccc(OC(F)F)c(-c2nn(CC(=O)N3CCC(C(=O)N4CCNCC4)CC3)cc2NC(=O)c2cnn3cccnc23)c1 [Example 151, N-[3-[2-(difluoromethoxy)-5-isopropylsulfanyl-phenyl]-1-[2-oxo-2-[4-(piperazine-1-carbonyl)-1-piperidyl]ethyl]pyrazol-4-yl]pyrazolo[1,5-a]pyrimidine-3-carboxamide]	960
0.27	0.52	CSc1ccc(OC(F)F)c(-c2nn(CC(=O)N3CCC(N4CCC[C@H](C#N)C4)CC3)cc2NC(=O)c2cnn3cccnc23)c1 [Example 55, N-[1-(2-[4-[(3 S)-3-cyanopiperidin-1-yl]piperidin-1-yl]-2-oxoethyl)-3-[2-(difluoromethoxy)-5-(methylsulfanyl)phenyl]-1H-pyrazol-4-yl]pyrazolo[1,5-a]pyrimidine-3-carboxamide]	11
0.4	0.24	CC(C)Sc1ccc(OC(F)F)c(-c2nn(Cc3cn(C4CCN(C5COC5)CC4)nn3)cc2NC(=O)c2cnn3cccnc23)c1 [Example 148, N-[3-[2-(difluoromethoxy)-5-isopropylsulfanyl-phenyl]-1-[[1-[1-(oxetan-3-yl)-4-piperidyl]triazol-4-yl]methyl]pyrazol-4-yl]pyrazolo[1,5-a]pyrimidine-3-carboxamide]	55
0.37	0.53	CSc1ccc(OC(F)F)c(-c2nn(CC(=O)N3CCC(N4CCO[C@H](CO)C4)CC3)cc2NC(=O)c2cnn3cccnc23)c1 [Example 84, N-[3-[2-(difluoromethoxy)-5-methylsulfanyl-phenyl]-1-[2-[4-[(2S)-2-(hydroxymethyl)morpholin-4-yl]-1-piperidyl]-2-oxo-ethyl]pyrazol-4-yl]pyrazolo[1,5-a]pyrimidine-3-carboxamide]	44

More lines, now with the values behind:

Compound	Ki [1] [nM]	Ki [2] [nM]	IC50 [3] [nM]
CSc1ccc(OC(F)F)c(-c2nn(CC(=O)N3CCC(NCCC#N)CC3)cc2NC(=O)c2cnn3cccnc23)c1 [Example 8, N-[1-[2-[4-(2-cyanoethylamino)-1-piperidyl]-2-oxo-ethyl]-3-[2-(difluoromethoxy)-5-methylsulfanyl-phenyl]pyrazol-4-yl]pyrazolo[1,5-a]pyrimidine-3-carboxamide]	0.29	0.39	18
CSc1ccc(OC(F)F)c(-c2nn(CC(=O)N3CCC(CN4CCOCC4)CC3)cc2NC(=O)c2cnn3cccnc23)c1 [Example 7, N-[3-[2-(difluoromethoxy)-5-methylsulfanyl-phenyl]-1-[2-[4-(morpholinomethyl)-1-piperidyl]-2-oxo-ethyl]pyrazol-4-yl]pyrazolo[1,5-a]pyrimidine-3-carboxamide]	0.3	0.49	4.8
CSc1ccc(OC(F)F)c(-c2nn(CCN[C@@H]3CCOC3)cc2NC(=O)c2cnn3cccnc23)c1 [Example 11, (R)—N-(3-(2-(difluoromethoxy)-5-(methylthio)phenyl)-1-(2-((tetrahydrofuran-3-yl)amino)ethyl)-1H-pyrazol-4-yl)pyrazolo[1,5-a]pyrimidine-3-carboxamide]	0.32	0.21	5.9
CSc1ccc(OC(F)F)c(-c2nn(CC(=O)N3CCC(N(C)CC(=O)N4CCCC4)CC3)cc2NC(=O)c2cnn3cccnc23)c1 [Example 14]	0.32	0.68	89
CSc1ccc(OC(F)F)c(-c2nn(CC(=O)N3CCC(N4CC[S+]([O-])CC4)CC3)cc2NC(=O)c2cnn3cccnc23)c1 [Example 48, N-[3-[2-(difluoromethoxy)-5-methylsulfanyl-phenyl]-1-[2-oxo-2-[4-(1-oxo-1,4-thiazinan-4-yl)-1-piperidyl]ethyl]pyrazol-4-yl]pyrazolo[1,5-a]pyrimidine-3-carboxamide]	0.29	0.44	410
CSc1ccc(OC(F)F)c(-c2nn(CCN[C@H]3C[C@H](O)C3)cc2NC(=O)c2cnn3cccnc23)c1 [Example 40]	0.28	0.25	9.5
CSc1ccc(OC(F)F)c(-c2nn(CC(=O)N3CCN(CC4CCN(CC(=O)N(C)C)CC4)CC3)cc2NC(=O)c2cnn3cccnc23)c1 [Example 33, N-[3-[2-(difluoromethoxy)-5-methylsulfanyl-phenyl]-1-[2-[4-[[1-[2-(dimethylamino)-2-oxo-ethyl]-4-piperidyl]methyl]piperazin-1-yl]-2-oxo-ethyl]pyrazol-4-yl]pyrazolo[1,5-a]pyrimidine-3-carboxamide]	0.38	0.73	35
CNC(=O)[C@@H]1CCCN1CC1CCN(C(=O)Cn2cc(NC(=O)c3cnn4cccnc34)c(-c3cc(SC)ccc3OC(F)F)n2)CC1 [Example 44, N-[3-[2-(difluoromethoxy)-5-methylsulfanyl-phenyl]-1-[2-[4-[[(2S)-2-(methylcarbamoyl)pyrrolidin-1-yl]methyl]-1-piperidyl]-2-oxo-ethyl]pyrazol-4-yl]pyrazolo[1,5-a]pyrimidine-3-carboxamide]	0.38	0.72	73
